Laboratory results published in article PMC6662923 (Chemical research in toxicology, 2018).

Legend:
[1] = human liver microsomes, 2 h incubation; cited from earlier work
[2] = ref Table S4; cited from earlier work
male Swiss Webster mice = experiment: Lethality assay in mice; conditions: for Time of most overdose events after drug exposure: bolus iv injection
mice = test system: mice; design: unit not given beside the values; conditions: literature value for LD50 in mice, ref not given; cited from earlier work
Lethality assay in mice = conditions: male, Swiss Webster, mouse, in vivo, iv
murine μ-OR = conditions: cited from earlier work
[3] = post-mortem toxicology reports; cited from earlier work

| Compound | Conversion to mitragynine [1] | Solubility in aqueous solution [2] | Time of most overdose events after drug exposure (male Swiss Webster mice) | Observations after oral dosing (male Swiss Webster mice; oral, no deaths observed) | LD50 iv, literature value (mice) | LD50 at 24 h (Lethality assay in mice) | Mode of binding at the murine μ-OR (murine μ-OR) | Reported urine concentrations in overdose deaths involving Kratom [3] | LD50 oral (male Swiss Webster mice; oral, doses given in mg/kg) |
| --- | --- | --- | --- | --- | --- | --- | --- | --- | --- |
| CC[C@@H]1CN2CC[C@@]3(O)C(=Nc4cccc(OC)c43)[C@@H]2C[C@@H]1/C(=C\OC)C(=O)OC [7-hydroxymitragynine, 7-Hydroxymitragynine] | 45% | low solubility | ≤ 10 min | severe respiratory depression and seizures were observed | – | – | – | – | – |
| CC(=O)Oc1ccc2c3c1O[C@H]1[C@@H](OC(C)=O)C=C[C@H]4[C@@H](C2)N(C)CC[C@@]341 [heroin] | – | – | – | – | 21.8 | 23.7 mg/kg | – | – | – |
| mitragynine | – | low solubility | ≤ 10 min | – | – | – | competitive antagonist | 0.167 to 1.2 µg/mL | 547.7 |
